Experimental data published in patent US20110294799A1, “Organic Compounds” (NOVARTIS AG, priority 2007, published 2011).

How the values were obtained:
[1] = biological target: T1, GABA-A alpha1 receptor (alpha 1 subunit together with a beta and a gamma subunit) (Homo sapiens, UniProt P14867+P18507); assay: GABA-A receptor modulation, voltage-sensitive dye fluorescence in transfected eukaryotic cell line (alpha1); format: cell-based; settings: compounds at 3 μM, sub-maximal concentration of GABA (EC20); for activation at 3 µM: read-out: alpha1 % mod (percentage of increase of the fluorescent signal compared to signal without the agent)
T1 construct: expressed in transfected cells
T1 sequence (P14867 28-456): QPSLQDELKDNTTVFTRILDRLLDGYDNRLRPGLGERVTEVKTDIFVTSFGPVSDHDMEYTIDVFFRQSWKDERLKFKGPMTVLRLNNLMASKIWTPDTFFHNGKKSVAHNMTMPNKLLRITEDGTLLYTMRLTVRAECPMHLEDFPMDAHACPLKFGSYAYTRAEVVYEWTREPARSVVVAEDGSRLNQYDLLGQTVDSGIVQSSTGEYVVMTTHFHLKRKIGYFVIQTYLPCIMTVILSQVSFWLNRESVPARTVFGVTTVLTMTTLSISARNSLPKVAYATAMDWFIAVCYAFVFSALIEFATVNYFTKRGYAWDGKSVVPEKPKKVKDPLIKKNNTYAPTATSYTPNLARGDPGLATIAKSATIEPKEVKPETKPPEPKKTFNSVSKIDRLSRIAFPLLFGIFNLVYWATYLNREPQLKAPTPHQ
T1 sequence (P47870 25-512 partner limits assumed): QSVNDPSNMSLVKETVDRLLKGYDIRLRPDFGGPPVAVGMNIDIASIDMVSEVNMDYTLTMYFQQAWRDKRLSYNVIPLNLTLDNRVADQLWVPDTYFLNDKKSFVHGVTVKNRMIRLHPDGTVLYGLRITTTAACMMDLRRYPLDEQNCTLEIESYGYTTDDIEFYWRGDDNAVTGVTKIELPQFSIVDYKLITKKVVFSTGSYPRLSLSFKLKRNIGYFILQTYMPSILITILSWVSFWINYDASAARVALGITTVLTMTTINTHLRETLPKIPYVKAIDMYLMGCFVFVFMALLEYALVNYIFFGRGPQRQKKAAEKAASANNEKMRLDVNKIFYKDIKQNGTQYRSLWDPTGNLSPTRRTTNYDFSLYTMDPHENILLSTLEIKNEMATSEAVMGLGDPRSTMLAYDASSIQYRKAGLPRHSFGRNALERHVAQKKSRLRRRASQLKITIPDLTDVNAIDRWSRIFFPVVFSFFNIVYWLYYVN
T1 sequence (P18507 40-467 limits assumed): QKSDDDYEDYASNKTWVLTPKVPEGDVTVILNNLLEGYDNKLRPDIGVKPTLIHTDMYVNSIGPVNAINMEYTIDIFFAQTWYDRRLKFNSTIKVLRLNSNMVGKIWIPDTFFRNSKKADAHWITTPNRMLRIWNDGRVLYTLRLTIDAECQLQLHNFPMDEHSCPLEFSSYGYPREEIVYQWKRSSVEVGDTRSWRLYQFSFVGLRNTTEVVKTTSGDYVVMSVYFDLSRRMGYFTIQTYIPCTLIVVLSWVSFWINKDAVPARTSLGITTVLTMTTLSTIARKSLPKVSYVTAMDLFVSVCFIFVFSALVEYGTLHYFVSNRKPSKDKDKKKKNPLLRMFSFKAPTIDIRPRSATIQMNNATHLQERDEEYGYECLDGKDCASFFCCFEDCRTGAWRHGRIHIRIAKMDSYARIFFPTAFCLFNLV
Excerpt: (§1) GABA-A receptor modulators show in functional assays a positive modulation of GABA-induced signals. This modulation can be determined in vitro, e.g., at recombinant GABA-A receptors expressed in a mammalian cell line, e.g. by measurement of GABA-A receptor induced changes of the trans-membrane voltage, when using a voltage-sensitive dye and a fluorescence detection system (Adkins, C. E., Pillai, G. V., Kerby, J., Bonnert, T. P., Haldon, C., Mckernan, R. M., Gonzalez, J. E., Oades, K., Whiting, P. J. & Simpson, P. B. [2001]. alpha4beta3delta GABA-A receptors characterized by fluorescence resonance energy transfer-derived measurements of membrane potential. J. Biol. Chem., 276, 38934-38939). In this assay, a modulator compound is pre-applied at different concentrations ranging from 0.1 nM to 10 μM to cells expressing GABA-A receptors and loaded with the voltage-sensitive dye, before, or at the same time as, a sub-maximal concentration of GABA (in the range of from 0.1 to 10 μM) is applied to the cells. The fluorescent signal is correlated with the degree of GABA-A receptor channel opening. This allows the quantification of effects induced by the modulator in a functional manner. By expression of different GABA-A receptor subunit combinations, the differential efficacy of a modulator at different GABA-A receptor variants can be tested. Other functional assays include the electrophysiological recording of Xenopus oocytes or mammalian cells expressing respective receptor variants. In addition, ion flux detectors can be used to functionally study GABA-A receptors in heterologous expression systems. The affinity of a compound to the GABA-A receptor can be measured in radioligand binding experiments using reference ligands containing a radioactive element, e.g., tritiated flumazenil, and intact cells or membrane preparations of cells expressing GABA-A receptors.
(§2) Activity and selectivity of a GABA-A receptor modulator according to the invention can, e.g., be determined in vitro as follows: A transfected eukaryotic cell line expressing the alpha1, alpha2 or alpha3 subunit of the GABA-A receptor together with a beta and a gamma subunit of the GABA-A receptor is incubated with a voltage-sensitive dye, and the effects of an agonist (typically GABA) or modulator addition are recorded in a fluorimetric plate reader. The opening of the GABA-A receptor channel and the subsequent flux of anions through it changes the trans-membrane voltage of the transfected cells, leading to a change in the fluorescent signal of the voltage-sensitive dye. In the presence of the agent of the invention, a sub-maximal concentration of GABA (e.g. an EC20 or an EC50) added to transfected cells expressing the alpha1, alpha2 or alpha3 subunit of the GABA-A receptor will elicit an at least 50%, preferably an at least 80%, ideally an at least 100%, increase, of the fluorescent signal, compared to the fluorescent signal obtained without the agent of the invention. In this assay, agents of the invention modulate the GABA-induced response at concentration from about 0.1 to about 10′000 nM.

[2] = biological target: T2, GABA-A alpha2 receptor (alpha 2 subunit together with a beta and a gamma subunit) (Homo sapiens, UniProt P18507+P47869); assay: GABA-A receptor modulation, voltage-sensitive dye fluorescence in transfected eukaryotic cell line (alpha2); format: cell-based; settings: compounds at 3 μM, sub-maximal concentration of GABA (EC20); for activation at 3 µM: read-out: alpha2 % mod (percentage of increase of the fluorescent signal compared to signal without the agent)
T2 construct: expressed in transfected cells
T2 sequence (P47869 29-451): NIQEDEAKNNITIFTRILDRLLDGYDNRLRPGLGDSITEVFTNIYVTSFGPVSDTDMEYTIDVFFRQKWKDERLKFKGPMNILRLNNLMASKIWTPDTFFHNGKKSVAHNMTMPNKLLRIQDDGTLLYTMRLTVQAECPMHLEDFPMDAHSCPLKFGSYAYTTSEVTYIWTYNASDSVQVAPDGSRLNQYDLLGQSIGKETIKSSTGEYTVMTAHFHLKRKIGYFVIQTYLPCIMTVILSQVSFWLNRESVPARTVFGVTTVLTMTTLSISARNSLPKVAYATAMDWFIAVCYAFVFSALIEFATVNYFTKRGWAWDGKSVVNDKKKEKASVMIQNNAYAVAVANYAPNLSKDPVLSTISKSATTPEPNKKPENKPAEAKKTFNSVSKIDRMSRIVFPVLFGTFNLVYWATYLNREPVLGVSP
T2 sequence (P47870 25-512 partner limits assumed): T1 sequence (P47870 25-512 partner limits assumed)
T2 sequence (P18507 40-467 limits assumed): T1 sequence (P18507 40-467 limits assumed)
Excerpt: as §1, §2

Row | SMILES | activation at 3 µM [1] [%] | activation at 3 µM [2] [%] | alpha1 % mod (percentage of increase of the fluorescent signal compared to signal without the agent) [1] [% mod] | alpha2 % mod (percentage of increase of the fluorescent signal compared to signal without the agent) [2] [% mod]
1 | Fc1ccccc1-n1nc2c(cnc3ccccc32)c1OCCc1ccccc1Cl [Example 16, 3-[2-(2-chlorophenyl)ethoxy]-2-(2-fluorophenyl)-2H-pyrazolo[4,3-c]quinoline] | 18 | 101 | – | –
2 | Fc1ccc(-n2nc3c(cnc4ccccc43)c2OCc2ccccc2C(F)(F)F)cc1 [Example 50, 2-(4-fluorophenyl)-3-{[2-(trifluoromethyl)benzyl]oxy}-2H-pyrazolo[4,3-c]quinoline] | 47 | 236 | – | –
3 | COc1ccc(-n2nc3c(cnc4ccccc43)c2OCCc2ccccc2Cl)cc1 [Example 15, 3-[2-(2-chlorophenyl)ethoxy]-2-(4-methoxyphenyl)-2H-pyrazolo[4,3-c]quinoline] | 23 | 197 | – | –
4 | Fc1ccccc1-n1nc2c(cnc3ccccc32)c1OCCN1CCOCC1 [Example 19, 2-(2-fluorophenyl)-3-(2-morpholin-4-ylethoxy)-2H-pyrazolo[4,3-c]quinoline] | 0 | 72 | – | –
5 | Clc1ccc(-n2nc3c(cnc4ccc(Br)cc43)c2OCc2ccccc2Cl)cc1 [Example 115, 8-Bromo-3-(2-chloro-benzyloxy)-2-(4-chloro-phenyl)-2H-pyrazolo[4,3-c]quinoline] | 26 | 66 | – | –
6 | Cc1cccc2c1ncc1c(OCc3ccc(Cl)cc3)n(-c3ccccc3)nc12 [Example 31, 3-[(4-chlorobenzyl)oxy]-6-methyl-2-phenyl-2H-pyrazolo[4,3-c]quinoline] | 51 | 81 | – | –
7 | Cc1ccccc1-n1nc2c(cnc3ccccc32)c1OCc1ccccc1Br [Example 36, 3-[(2-bromobenzyl)oxy]-2-(2-methylphenyl)-2H-pyrazolo[4,3-c]quinoline] | 223 | 315 | – | –
8 | COc1ccc(-n2nc3c(cnc4ccccc43)c2OCc2ccc(Cl)nc2)cc1 [Example 62, 3-[(6-chloropyridin-3-yl)methoxy]-2-(4-methoxypheny1)-2H-pyrazolo[4,3-c]quinoline] | – | – | 55 | 141
9 | Clc1ccc(-n2nc3c(cnc4ccc(-n5ccnc5)cc43)c2OCC2CCCC2)cc1 [Example 113, 2-(4-Chloro-phenyl)-3-cyclopentylmethoxy-8-imidazol-1-yl-2H-pyrazolo[4,3-c]quinoline] | 63 | 88 | – | –
10 | COc1ccc(-n2nc3c(cnc4ccccc43)c2OCCN2CCOCC2)cc1 [Example 18, 2-(4-methoxyphenyl)-3-(2-morpholin-4-ylethoxy)-2H-pyrazolo[4,3-c]quinoline] | 67 | 196 | – | –
11 | CN1CCN(CCOc2c3cnc4ccccc4c3nn2-c2ccc(Cl)cc2)CC1 [Example 99] | – | – | 58 | 121
12 | Clc1ccc(-n2nc3c(cnc4ccccc43)c2OCC2CCO2)cc1 (centres unmarked) [Example 98, 2-(4-Chloro-phenyl)-3-(oxetan-2-ylmethoxy)-2H-pyrazolo[4,3-c]quinoline] | 53 | 97 | – | –
13 | Fc1ccc(-n2nc3c(cnc4ccccc43)c2OCc2ccccc2Cl)cc1 [Example 63, 3-[(2-chlorobenzyl)oxy]-2-(4-fluorophenyl)-2H-pyrazolo[4,3-c]quinoline] | 9 | 60 | – | –
14 | Clc1ccc(-n2nc3c(cnc4ccccc43)c2OCC2CCCC2)cc1 [Example 91, 2-(4-Chloro-phenyl)-3-cyclopentylmethoxy-2H-pyrazolo[4,3-c]quinoline] | 55 | 84 | – | –
15 | Clc1ccccc1-n1nc2c(cnc3ccccc32)c1OCc1ccccc1Br [Example 41, 3-[(2-bromobenzyl)oxy]-2-(2-chlorophenyl)-2H-pyrazolo[4,3-c]quinoline] | 289 | 386 | – | –
16 | COc1ccc(-n2nc3c(cnc4ccccc43)c2OCc2ccc(Cl)cc2)cc1 [Example 89, 3-(4-Chloro-benzyloxy)-2-(4-methoxy-phenyl)-2H-pyrazolo[4,3-c]quinoline] | 23 | 69 | – | –
17 | CC(C)(C)n1nc2c(cnc3ccccc32)c1OCc1ccccc1Br [Example 81, 3-[(2-bromobenzyl)oxy]-2-tert-butyl-2H-pyrazolo[4,3-c]quinoline] | 109 | 205 | – | –
18 | Fc1ccccc1COc1c2cnc3ccccc3c2nn1-c1ccccc1 [Example 27, 3-[(2-fluorobenzyl)oxy]-2-phenyl-2H-pyrazolo[4,3-c]quinoline] | 62 | 165 | – | –
19 | COc1ccc(-n2nc3c(cnc4c(F)c(F)c(F)cc43)c2SCc2ccccc2)cc1 [Example 70, 3-(benzylsulfanyl)-6,7,8-trifluoro-2-(4-methoxyphenyl)-2H-pyrazolo[4,3-c]quinoline] | 188 | 349 | – | –
